Data published in patent US6821980B1, “Substituted 5-benzyl-2,4-diaminopyrimidines” (Basilea Pharmaceutica AG, priority 1999, dated 2004).
≈ marks a conversion by molar mass, not a printed value. Where two headings read alike, the source gives them in different places.

How the values were obtained:
[1] = biological target: purified DHFR of strain 157/4696 of Staphylococcus aureus (Staphylococcus aureus, UniProt P13955); assay: biochemical
[2] = biological target: T1, purified DHFR of strain Sp1/1 of Streptococcus pneumoniae (Streptococcus pneumoniae serotype 4, UniProt Q54801); format: biochemical; details: IC50 against purified DHFR of strain Sp1/1
T1 sequence (Q54801 1-168 I100L): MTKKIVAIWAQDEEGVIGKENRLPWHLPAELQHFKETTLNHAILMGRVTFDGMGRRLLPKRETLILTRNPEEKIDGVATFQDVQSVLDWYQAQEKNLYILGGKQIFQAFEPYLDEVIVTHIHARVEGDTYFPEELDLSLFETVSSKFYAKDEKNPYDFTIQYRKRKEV

[3] = tested on: Staphylococcus aureus 101; assay: MIC against Staphylococcus aureus 101; format: cell-based; details: Staphylococcus aureus 101, MRSA- and trimethoprim-resistant, clinical isolate, read-out: MIC Sa101
[4] = tested on: Streptococcus pneumoniae 1/1; assay: MIC against Streptococcus pneumoniae 1/1; format: cell-based; details: Streptococcus pneumoniae 1/1, trimethoprim- and penicillin-resistant, serotype 6, clinical isolate, read-out: MIC Sp1/1

purified DHFR of strain 157/4696 of Staphylococcus aureus, sequence (P13955 whole entry): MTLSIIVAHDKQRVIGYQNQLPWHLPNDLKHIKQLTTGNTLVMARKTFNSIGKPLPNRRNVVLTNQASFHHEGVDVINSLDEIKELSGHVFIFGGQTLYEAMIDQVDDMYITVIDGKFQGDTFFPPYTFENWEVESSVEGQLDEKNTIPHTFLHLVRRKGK

Row | Structure (SMILES) | IC50 [1] | IC50 ([2]; Table 2) | MIC ([3]; Table 2) | MIC ([4]; Table 2) | IC50 ([2]; Table 1) | MIC ([3]; Table 1) | MIC ([4]; Table 1)
1 | CCOc1cc(Cc2cnc(N)nc2N)cc(OCC)c1-c1ccc(C#N)cc1 [Example 04-a, 4′-(2,4-Diamino-pyrimidin-5-ylmethyl)-2′,6′-diethoxy-biphenyl-4-carbonitrile] | 2700 nM | 82 nM | 8 µg/mL (≈ 20.5 µM) | 4 µg/mL (≈ 10.3 µM) |  |  | 
2 | CCOc1cc(Cc2cnc(N)nc2N)cc(OS(=O)(=O)C2CC2)c1-c1ccc(CN2CCOCC2)s1 [Example 24-, Cyclopropanesulphonic acid 5-(2,4-diamino-pyrimidin-5-ylmethyl)-3-ethoxy-2-(5-morpholin-4-ylmethyl-thiophen-2-yl)-phenyl ester] | 190 nM | 16 nM | 4 µg/mL (≈ 7.33 µM) | 1 µg/mL (≈ 1.83 µM) |  |  | 
3 | CCOc1cc(Cc2cnc(N)nc2N)cc(OS(=O)(=O)N(C)CC)c1-c1ccc(N)cc1 [Example 22-b, N-Ethyl-N-methyl-sulphamic acid 4′-amino-4-(2,4-diamino-pyrimidin-5-ylmethyl)-6-ethoxy-biphenyl-2-yl ester] | 38 nM | 2.3 nM | 1 µg/mL (≈ 2.12 µM) | 1 µg/mL (≈ 2.12 µM) |  |  | 
4 | CCOc1cc(Cc2cnc(N)nc2N)cc(OS(=O)(=O)CC)c1-c1ccc(OC)cc1 [Example 16-b, Ethanesulphonic acid 4-(2,4-diamino-pyrimidin-5-ylmethyl)-6-ethoxy-4′-methoxy-biphenyl-2-yl ester] | 100 nM | 39 nM | 2 µg/mL (≈ 4.36 µM) | 2 µg/mL (≈ 4.36 µM) |  |  | 
5 | CCOc1cc(Cc2cnc(N)nc2N)cc(OCC2CC2)c1-c1ccc(OS(C)(=O)=O)cc1 [Example 57-, Methanesulphonic acid 2′-cylopropylmethoxy-4′-(2,4-diamino-pyrimidin-5-ylmethyl)-6′-ethoxy-biphenyl-4-yl ester] | 3600 nM | 30 nM | 8 µg/mL (≈ 16.5 µM) | 4 µg/mL (≈ 8.25 µM) |  |  | 
6 | CCOc1cc(Cc2cnc(N)nc2N)cc(OS(=O)(=O)C(C)C)c1-c1ccc(N)c(C)c1 [Example 33e, Propane-2-sulphonic acid 4′-amino-4-(2,4-diamino-pyrimidin-5-ylmethyl)-6-ethoxy-3′-methyl-biphenyl-2-yl ester] | 200 nM |  |  |  | 19 nM | 1 µg/mL (≈ 2.12 µM) | 1 µg/mL (≈ 2.12 µM)
7 | CCCOc1cc(Cc2cnc(N)nc2N)cc(OCCC)c1-c1cccc(N)c1 [Example 51-, 5-(3′-Amino-2,6-di-n-propoxy-biphenyl-4-ylmethyl)-pyrimidine-2,4-diamine] | 8500 nM | 43 nM | 8 µg/mL (≈ 19.6 µM) | 2 µg/mL (≈ 4.91 µM) |  |  | 
8 | CCOc1cc(Cc2cnc(N)nc2N)cc(OS(=O)(=O)N2CCOCC2)c1-c1ccc(O)cc1 [Example 20-d, Morpholine-4-sulphonic acid 4-(2,4-diamino-pyrimidin-5-ylmethyl)-6-ethoxy-4′-hydroxy-biphenyl-2-yl ester] | 95 nM | 5.8 nM | 8 µg/mL (≈ 16 µM) | 1 µg/mL (≈ 1.99 µM) |  |  | 
9 | CCOc1cc(Cc2cnc(N)nc2N)cc(OC2CCC(CC#N)C2)c1-c1ccc(O)cc1 (stereo not drawn) [Example 08-w, {3-[4-(2,4-Diamino-pyhmidin-5-ylmethyl)-6-ethoxy-4′-hydroxy-biphenyl-2-yloxy]-cyclopentyl}-acetonitrile] | 920 nM | 21 nM | 8 µg/mL (≈ 17.4 µM) | 4 µg/mL (≈ 8.7 µM) |  |  | 
10 | CCOc1cc(Cc2cnc(N)nc2N)cc(OC2CCC(C#N)C2)c1-c1ccc(O)cc1 (stereo not drawn) [Example 08-x, 3-[4-(2,4-Diamino-pyximidin-5-ylmethyl)-6-ethoxy-4′-hydroxy-biphenyl-2-yloxy]-cyclopentanecarbonitrile] | 1400 nM | 25 nM | 8 µg/mL (≈ 18 µM) | 4 µg/mL (≈ 8.98 µM) |  |  | 
11 | CCOc1cc(Cc2cnc(N)nc2N)cc(OCC)c1-c1ccc(CN2CCOCC2)nc1 [Example 04-d, 5-[3,5-Diethoxy-4-(6-morpholin-4-ylmethyl-pyridin-3-yl)-benzyl]-pyrimidine-2,4-diamine] | 2100 nM | 65 nM | 8 µg/mL (≈ 17.2 µM) | 4 µg/mL (≈ 8.61 µM) |  |  | 
12 | CCOc1cc(Cc2cnc(N)nc2N)cc(OS(=O)C(C)(C)C)c1-c1ccc(O)cc1 (stereo not drawn) [Example 15-i, 2-Methyl-propane-2-sulphinic acid 4-(2,4-diamino-pyrimidin-5-ylmethyl)-6-ethoxy-4′-hydroxy-biphenyl-2-yl ester] | 81 nM | 22 nM | 2 µg/mL (≈ 4.38 µM) | 4 µg/mL (≈ 8.76 µM) |  |  | 
13 | CCOc1cc(Cc2cnc(N)nc2N)cc(OS(=O)(=O)N2CCCC2)c1-c1ccc(O)cc1 [Example 20-c, Pyrrolidine-1-sulrbonic acid 4-(2,4-diamino-pyrimidin-5-ylmethyl)-6-ethoxy-4′-hydroxy-biphenyl-2-yl ester] | 180 nM | 8.1 nM | 4 µg/mL (≈ 8.24 µM) | 1 µg/mL (≈ 2.06 µM) |  |  | 
14 | CCOc1cc(Cc2cnc(N)nc2N)cc(OCC)c1-c1cccc(N(C)C)c1 [Example 02-y, 5-(3′-Dimethylamino-2,6-diethoxy-biphenyl-4-ylmethyl)-pyrimidine-2,4-diamine] | 800 nM | 150 nM | 8 µg/mL (≈ 19.6 µM) | 4 µg/mL (≈ 9.82 µM) |  |  | 
15 | CCOc1cc(Cc2cnc(N)nc2N)cc(OCC)c1-c1cc(C)cc(N)c1 [Example 04-ae, 5-(5′-Amino-2,6-diethoxy-3′-methyl-biphenyl-4-ylmethyl)-pyrimidine-2,4-diamine] | 1400 nM | 19 nM | 8 µg/mL (≈ 20.3 µM) | 8 µg/mL (≈ 20.3 µM) |  |  | 
16 | CCOc1cc(Cc2cnc(N)nc2N)cc(OS(=O)(=O)C2CC2)c1-c1cc(N)cc(F)c1 [Example 34-c, Cyclopropanesulphonic acid 3′-amino-4-(2,4-diamino-pyrimidin-5-ylmethyl)-6-ethoxy-5′-fluoro-biphenyl-2-yl ester] | 190 nM | 3.4 nM | 4 µg/mL (≈ 8.45 µM) | 2 µg/mL (≈ 4.22 µM) |  |  | 
17 | CCOc1cc(Cc2cnc(N)nc2N)cc(OCC2CC2)c1-c1ccc(OCCO)cc1 [Example 55-, 2-[2′-Cyclopropylmethoxy-4′-(2,4-diamino-pyrimidin-5-ylmethyl)-6′-ethoxy-biphenyl-4-yloxy]-ethanol] | 1700 nM | 48 nM | 8 µg/mL (≈ 17.8 µM) | 4 µg/mL (≈ 8.88 µM) |  |  | 
18 | CCOc1cc(Cc2cnc(N)nc2N)cc(OS(=O)(=O)N(C)C)c1-c1ccccc1 [Example 43-b, Dimethylsulphamic acid 4-(2,4-diamino-pyrimidin-5-ylmethyl)-6-ethoxy-biphenyl-2-yl ester] | 260 nM | 9.8 nM | 1 µg/mL (≈ 2.25 µM) | 1 µg/mL (≈ 2.25 µM) |  |  | 
19 | CCOc1cc(Cc2cnc(N)nc2N)cc(OCC)c1-c1ccc(COCC(=O)N2CCSCC2)s1 [Example 03-b, 2-[5-[4-(2,4-Diamino-pyrimidin-5-ylmethyl)-2,6-diethoxy-phenyl]-thiophen-2-ylmethoxy]-1-thiomorpholin-4-yl-ethanone] | 1600 nM | 19 nM | 8 µg/mL (≈ 14.7 µM) | 2 µg/mL (≈ 3.68 µM) |  |  | 
20 | CCOc1cc(Cc2cnc(N)nc2N)cc(OS(=O)(=O)C(C)CC)c1-c1ccc(OCCO)cc1 (stereo not drawn) [Example 61-b] | 210 nM | 11 nM | 2 µg/mL (≈ 3.87 µM) | 1 µg/mL (≈ 1.94 µM) |  |  | 
21 | CCOc1cc(Cc2cnc(N)nc2N)cc(OS(=O)(=O)CC(C)C)c1-c1ccc(OC)c(N)c1 [Example 36-d, 2-Methyl-prooane-1-sulphonic acid 3′-amino-4-(2,4-diamino-pyrimidin-5-ylmethyl)-6-ethoxy-4′-methoxy-biphenyl-2-yl ester] | 66 nM | 0.68 nM | 2 µg/mL (≈ 3.99 µM) | 0.5 µg/mL (≈ 0.997 µM) |  |  | 
22 | CCOc1cc(Cc2cnc(N)nc2N)cc(OS(=O)(=O)N(CC)CC)c1-c1ccc(O)cc1 [Example 20-h, Diethyl-sulphamic acid 4-(2,4-diamino-pyrimidin-5-ylmethyl)-6-ethoxy-4′-hydroxy-biphenyl-2-yl ester] | 350 nM | 9.2 nM | 2 µg/mL (≈ 4.1 µM) | 1 µg/mL (≈ 2.05 µM) |  |  | 
23 | CCOc1cc(Cc2cnc(N)nc2N)cc(OCC)c1-c1ccc(F)c(N)c1 [Example 04-n, 5-(3′-Amino-2,6-diethozy-4′-fluoro-biphenyl-4-ylmethyl)-pyrimidine-2,4-diamine] | 1400 nM | 68 nM | 8 µg/mL (≈ 20.1 µM) | 2 µg/mL (≈ 5.03 µM) |  |  | 
24 | CCOc1cc(Cc2cnc(N)nc2N)cc(OS(=O)(=O)C2CC2)c1-c1ccc(NC)cc1 [Example 34-b, Cyclopropanesulphonic acid 4-(2,4-diamino-Ryrimidin-5-ylmethyl)-6-ethoxy-4′-methylamino-biphenyl-2-yl ester] | 210 nM | 11 nM | 2 µg/mL (≈ 4.26 µM) | 1 µg/mL (≈ 2.13 µM) |  |  | 
25 | CCOc1cc(Cc2cnc(N)nc2N)cc(OCC(C)(C)COC)c1-c1ccc(O)cc1 [Example 08-a, 4′-(2,4-Diamino-pylimidin-5-ylmethyl)-6′-ethoxy-2′-(3-methoxy-2,2-dimethyl-propoxy)-biphenyl-4-ol] | 1700 nM | 18 nM | 8 µg/mL (≈ 17.7 µM) | 2 µg/mL (≈ 4.42 µM) |  |  | 
26 | CCOc1cc(Cc2cnc(N)nc2N)cc(OCC)c1-c1ccc(CN2CCOCC2)cc1 [Example 02-w, 5-(2,6-Diethoxy-4′-morpholine-4-ylmethyl-biphenyl-4-ylmethyl)-pyrimidine-2,4-diamine] | 2200 nM | 280 nM | 8 µg/mL (≈ 17.3 µM) | 4 µg/mL (≈ 8.63 µM) |  |  | 
27 | CCOc1cc(Cc2cnc(N)nc2N)cc(OS(=O)(=O)N(C)C)c1-c1ccc(OC)cc1 [Example 21-, Dimethylsulphamic acid 4-(2,4-diamino-pyrimidin-5-ylmethyl)-6-ethoxy-4′-methoxy-biphenyl-2-yl ester] | 130 nM | 52 nM | 2 µg/mL (≈ 4.22 µM) | 2 µg/mL (≈ 4.22 µM) |  |  | 
